Measurements reported in patent US8921372B2, “Inhibitors of hepatitis C virus” (Theravance Biopharma R&D IP, LLC, priority 2010, dated 2014).

Tests used:
[1] = tested on: HCV genotype 1b replicon cell line (APC144; Huh7 cell background); test: HCV Genotype 1b Replicon Assay (Renilla luciferase readout); assay type: cell-based; settings: Hepatitis C virus, Huh-7; read-out: Genotype 1b (pEC50 class, HCV genotype 1b replicon assay) (converted)
In short: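 Huh7-derived APC144 subgenomic replicon cells carrying Renilla luciferase–NS3-NS5B, seeded 10,000/well without G418, then treated with compound dose-responses for 48 h at 37 °C (0.5% DMSO final). Luciferase signal fitted by 4-parameter model to EC50, reported as pEC50.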

[2] = tested on: HCV genotype 1a replicon cell line (APC89; Huh7.5 cell background); test: HCV Genotype 1a Replicon Assay (NS3-specific protease activity readout); assay type: cell-based; settings: Hepatitis C virus, 72 hour incubation, read-out: Genotype 1a (pEC50 class, HCV genotype 1a replicon assay) (converted)
In short: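 Genotype 1a subgenomic replicon cells (APC89, Huh7.5) were treated with compound dose-responses in G418-free medium, 0.5% DMSO final, for 48 or 72 hours at 37° C. Lysate NS3/4a protease activity measured with 15 μM FRET substrate, 20 min at 37° C (ex 340/em 509 nm); EC50 by 4-parameter fit.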

SMILES	EC50 [1]	EC50 [2]
CNC(=O)N1CCN(c2ccc(C(=O)Nc3cc(OC(F)(F)F)c(-c4ccc(-c5c[nH]c([C@@H]6CCCN6C(=O)[C@@H](NC(=O)OC)C(C)C)n5)cc4)cc3F)cn2)[C@H](C)C1 [Example 53, ((S)-1-{(S)-2-[4-(5′-Fluoro-4′-{[6-OR)-2-methyl-4-methylcarbamoyl-piperazin-1-yl)-pyridine-3-carbonyl]-amino}-2′-trifluoromethoxy-biphenyl-4-yl)-1H-imidazol-2-yl]-pyrrolidine-1-carbonyl}-2-methyl-propyl)-carbamic acid methyl ester]	< 0.1 nM	< 0.1 nM
COC(=O)N[C@H](C(=O)N1CCC[C@H]1c1nc(-c2ccc(-c3ccc(C(=O)Nc4ccc(N5CCN(C(=O)[C@]6(C)CCCN6C(=O)[C@@H](NC(=O)OC)C(C)C)C[C@H]5C)nc4)cc3OC(F)(F)F)cc2)c[nH]1)C(C)C [Example 56]	< 0.1 nM	0.1 to 1 nM
COC(=O)N[C@H](C(=O)N1CCC[C@H]1c1nc(-c2ccc(-c3cc(F)c(NC(=O)c4ccc(N5C[C@H](C)N(C(=O)[C@H]6CC6(C)C)C[C@H]5C)nc4)cc3OC(F)(F)F)cc2)c[nH]1)C(C)C [Example 57]	< 0.1 nM	< 0.1 nM
CNC(=O)N1C[C@@H](C)N(c2ccc(C(=O)Nc3cc(OC(F)(F)F)c(-c4ccc(-c5c[nH]c([C@@H]6CCCN6C(=O)[C@@H](NC(=O)OC)C(C)C)n5)cc4)cc3F)cn2)C[C@@H]1C [Example 58]	< 0.1 nM	< 0.1 nM
COC(=O)N[C@H](C(=O)N1CCC[C@H]1c1nc(-c2ccc(-c3cc(F)c(NC(=O)c4ccc(N5C[C@H](C)N(C(=O)c6c[nH]cn6)C[C@H]5C)nc4)cc3OC(F)(F)F)cc2)c[nH]1)C(C)C [Example 59]	< 0.1 nM	< 0.1 nM
COC(=O)N[C@H](C(=O)N1CCC[C@H]1c1nc(-c2ccc(-c3cc(F)c(NC(=O)c4ccc(N5C[C@H](C)N(C(=O)c6cc[nH]n6)C[C@H]5C)nc4)cc3OC(F)(F)F)cc2)c[nH]1)C(C)C [Example 60]	< 0.1 nM	< 0.1 nM
COC(=O)N[C@H](C(=O)N1CCC[C@H]1c1nc(-c2ccc(-c3cc(Cl)c(NC(=O)c4ccc(N5CCN(C(=O)[C@H]6CC6(C)C)C[C@H]5C)nc4)cc3C(F)(F)F)cc2)c[nH]1)C(C)C [Example 61, [(S)-1-((S)-2-{4-[5′-Chloro-4′-({6-[(R)-4-((S)-2,2-dimethyl-cyclopropanecarbonyl)-2-methyl-piperazin-1-yl]-pyridine-3-carbonyl}-amino)-2′-trifluoromethyl-biphenyl-4-yl]-1H-imidazol-2-yl}-pyrrolidine-1-carbonyl)-2-methyl-propyl]-carbamic acid methyl ester]	< 0.1 nM	< 0.1 nM
COC(=O)N[C@H](C(=O)N1CCC[C@H]1c1nc(-c2ccc(-c3cc(Cl)c(NC(=O)c4ccc(N5CCN(C(=O)[C@]6(C)CCCN6C(=O)[C@@H](NC(=O)OC)C(C)C)C[C@H]5C)nc4)cc3C(F)(F)F)cc2)c[nH]1)C(C)C [Example 62]	< 0.1 nM	< 0.1 nM
CNC(=O)N1C[C@@H](C)N(c2ccc(C(=O)Nc3cc(C(F)(F)F)c(-c4ccc(-c5c[nH]c([C@@H]6CCCN6C(=O)[C@@H](NC(=O)OC)C(C)C)n5)cc4)cc3Cl)cn2)C[C@@H]1C [Example 64]	< 0.1 nM	< 0.1 nM
COC(=O)N[C@H](C(=O)N1CCC[C@H]1c1nc(-c2ccc(-c3cc(Cl)c(NC(=O)c4ccc(N5C[C@H](C)N(C(=O)c6c[nH]cn6)C[C@H]5C)nc4)cc3C(F)(F)F)cc2)c[nH]1)C(C)C [Example 65]	< 0.1 nM	< 0.1 nM
COCC(=O)N1CCC[C@@]1(C)C(=O)N1CCN(c2ccc(NC(=O)c3ccc(-c4ccc(-c5c[nH]c([C@@H]6CCCN6C(=O)[C@@H](NC(=O)OC)C(C)C)n5)cc4)c(OC(F)(F)F)c3)cn2)[C@H](C)C1 [Example 66]	< 0.1 nM	< 0.1 nM
COC(=O)N[C@H](C(=O)N1CCC[C@H]1c1nc(-c2ccc(-c3ccc(C(=O)Nc4ccc(N5CCN(C(=O)[C@]6(C)CCCN6C(=O)CO)C[C@H]5C)nc4)cc3OC(F)(F)F)cc2)c[nH]1)C(C)C [Example 68]	< 0.1 nM	0.1 to 1 nM
